Experimental data published in patent US9018213B2, “Alicyclic[c] benzopyrone derivatives and uses thereof” (Huazhong University of Science & Technology, priority 2011, dated 2015).
Read-outs that look alike come from different tables or passages of the source.

How the values were obtained:
D2 receptor = D2 receptor (Rattus norvegicus (Rat), UniProt P61169); test: D2 receptor inhibition binding assay (3H-Spiperone); conditions: read-out: D2 inhibition %
Procedure: Rats were sacrificed by cervical dislocation on ice. Cerebral cortex was rapidly taken, and 2 cerebral cortexes were combined into a centrifuge tube, to which 3 ml of buffer (0.05 M Tris-HCl buffer, containing NaCl 120 mM, KCl 5 mM, MgCl2 1 mM, CaCl2 1 mM) was added, homogenization was conducted for 3-4 s at level 4 for four times, and then 5 ml of buffer was then added. The weight of the homogenized tubes were adjusted using a balance, and centrifugation was conducted at 12000 r, 4° C. for 20 min. The supernatant was discarded, and 3 ml of B solution was added. Vortex mixer was used for blending, and then 5 ml of B solution was added. Centrifugation was conducted and repeated 3 times. After the centrifugations, the supernatant was discarded, and the pellets were stored at −80° C. for future use.
Beckman LS-6500 Multi-function Liquid Scintillation Counter was used.
(1) The prepared membrane was first applied with appropriate amount of homogenized liquid, and homogenizer was used for evenly dispersing. 15 tubes were mixed into a 100 ml container, and appropriate amount of homogenized liquid was added to give 50 ml of membrane suspension, which was reserved for future use.
(2) 100 μL of membrane preparation and 100 μL of buffer were added into each reaction tube.
(3) 100 μL of homogenized liquid was added into the total binding tube (TB), 100 μL of Butaclamol (final concentration 10^−5 M) was added into the non-specific binding tube (NB), and 100 μL of the test compound (final concentration 10^−5 M) was added into the specific binding tube (SB) for each compound.
(5) Each of the reaction tubes was incubated at 37° C. for 20 min. After the reaction was completed, the bound ligands were rapidly filtered under reduced pressure, and the ice-chilled assay buffer was used for adequate washing. The filter was taken out and put into a 3 ml scintillation vial, and 2 ml of toluene scintillation solution was added and blended.
(6) The scintillation vials were put into Liquid Scintillation Counter for counting. Inhibitory rate (I %)=(Total binding tube cpm−compound cpm)/(Total binding tube cpm−non-specific binding tube cpm)×100%
Each assay for the compounds was conducted in duplicate.

5HT2A receptor = 5HT2A receptor (Rattus norvegicus (Rat), UniProt P14842); test: 5HT2A receptor binding assay ([3H]-Ketanserin); conditions: read-out: 5HT2A inhibition %
Chain of 5HT2A receptor (P14842 whole entry): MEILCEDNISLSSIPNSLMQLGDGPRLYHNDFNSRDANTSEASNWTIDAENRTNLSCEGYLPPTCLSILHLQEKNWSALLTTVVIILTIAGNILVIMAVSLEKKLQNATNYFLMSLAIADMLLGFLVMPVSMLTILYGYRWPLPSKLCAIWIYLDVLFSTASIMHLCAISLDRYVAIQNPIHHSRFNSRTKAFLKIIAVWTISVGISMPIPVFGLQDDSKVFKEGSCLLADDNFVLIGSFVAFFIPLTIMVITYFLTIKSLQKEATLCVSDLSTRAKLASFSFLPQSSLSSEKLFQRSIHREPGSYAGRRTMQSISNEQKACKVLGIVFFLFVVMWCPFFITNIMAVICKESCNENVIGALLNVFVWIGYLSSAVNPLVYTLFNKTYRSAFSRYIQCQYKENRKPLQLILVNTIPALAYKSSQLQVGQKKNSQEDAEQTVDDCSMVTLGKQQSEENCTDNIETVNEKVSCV

5HT1A receptor = 5HT1A receptor (Rattus norvegicus (Rat), UniProt P19327); test: 5HT1A receptor binding assay (3H-8-OH-DPAT); conditions: test compound final concentration 10^-5 M
Chain of 5HT1A receptor (P19327 whole entry): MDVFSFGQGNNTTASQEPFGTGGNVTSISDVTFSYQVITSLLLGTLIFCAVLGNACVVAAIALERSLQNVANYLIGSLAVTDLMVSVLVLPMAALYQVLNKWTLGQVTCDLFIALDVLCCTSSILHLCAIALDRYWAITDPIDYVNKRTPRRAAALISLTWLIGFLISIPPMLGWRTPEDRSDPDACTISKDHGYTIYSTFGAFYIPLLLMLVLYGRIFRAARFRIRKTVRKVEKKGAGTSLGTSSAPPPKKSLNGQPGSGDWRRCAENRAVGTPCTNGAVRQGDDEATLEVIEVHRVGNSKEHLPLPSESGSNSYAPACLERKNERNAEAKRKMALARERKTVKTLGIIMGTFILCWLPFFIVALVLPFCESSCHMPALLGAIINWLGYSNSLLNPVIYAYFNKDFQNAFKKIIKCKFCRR
Procedure: Preparation of 5HT1A Membrane
Incubation at 37° C. was conducted for 10 min, the weight of the tubes were adjusted using a balance after incubation. […] Centrifugation was conducted and repeated 3 times.
Materials for the Receptor Binding Assay

in vivo [1] = conditions: both sexes, mouse, in vivo, po
Procedure: Limit Test of Sequential Assay
KM mice (half male and half female) were randomly divided into several groups (with 2-5 mice in each group), which were respectively the 2000 mg/kg groups for each compound, and the solvent group. 0.2 ml/10 g were administered intragastrically. The death of the animals in 3 days were observed. (In the case 3 or more animals survived in 3 days without notable abnormity in their life states, the observation was continued until the assay was completed in 7 days. In the case 3 or more animals died in 3 days, the median lethal dose method was used to determine the LD50).
Pre-Assay for the Median Lethal Dose Method
0.2 ml/10 g were administered intragastrically, and the death of the animals in 1-3 days were observed.

in vivo [2] = conditions: both, Kunming (KM), mouse, po
Procedure: Healthy mice of Kunming breed (with half male and half female, (22±2) g) were provided by Qinglongshan Animal Cultivation Center, Nanjing.
The durations for the mice to maintain the posture with the two forepaws on the bars were recorded, and 30 s of spasticity without moving was considered as the positive response. In the case the forepaws of the mice were not put down persistently, the observation was terminated at 60 s. The numbers of animals with positive response in each of the compound dosage groups were counted.

mice of Kunming breed = test: MK-801 induced high activity; assay type: in vivo; conditions: po, mice; for ED50: Mus musculus
Procedure: Healthy mice of Kunming breed (with half male and half female, (20±2) g) were provided by Qinglongshan Animal Cultivation Center, Nanjing.
Ascorbic acid was provided by Sinopharm Chemical Reagent Co. Ltd.
Tween 80, with the concentration of 10%.
Subsequently, the spontaneous activities of the mice of each group in 90 min were measured.

KM mice = test: Apomorphine induced clambering assay of mice; assay type: in vivo; conditions: for ED50: Mus musculus, read-out: apomorphine induced clambering ED50; for Scoring (value), apomorphine induced clambering: x ± s, n = 10
Procedure: Apomorphine Induced Clambering Assay of Mice
Healthy KM mice (male, with body weight of 18-22 g) were provided by Qinglongshan Animal Cultivation Center, Nanjing.
Apomorphine provided by Sigma Company was dissolved in 0.9% NaCl (containing 0.1% vitamin C) before use, and was freshly formulated before use.
Vitamin C, F20061113, was provided by Sinopharm Chemical Reagent Co. Ltd.
Sodium chloride injection, H32026305, was provided by Xuzhou No. 5 Pharmaceutical Factory Co. Ltd.
Instruments: self-made clambering cage, chronograph.
Procedures: apomorphine induced clambering assay of mice
After 5 min of adaptation, the behaviors of the mice at 10-11, 20-21, and 30-31 min after the injection of apomorphine were observed and scored. Scoring criteria: 4 paws on the floor was scored as 0; 2 forepaws on the cage was scored as 1; and 4 paws on the cage was scored as 2.

Chain of D2 receptor (P61169 whole entry): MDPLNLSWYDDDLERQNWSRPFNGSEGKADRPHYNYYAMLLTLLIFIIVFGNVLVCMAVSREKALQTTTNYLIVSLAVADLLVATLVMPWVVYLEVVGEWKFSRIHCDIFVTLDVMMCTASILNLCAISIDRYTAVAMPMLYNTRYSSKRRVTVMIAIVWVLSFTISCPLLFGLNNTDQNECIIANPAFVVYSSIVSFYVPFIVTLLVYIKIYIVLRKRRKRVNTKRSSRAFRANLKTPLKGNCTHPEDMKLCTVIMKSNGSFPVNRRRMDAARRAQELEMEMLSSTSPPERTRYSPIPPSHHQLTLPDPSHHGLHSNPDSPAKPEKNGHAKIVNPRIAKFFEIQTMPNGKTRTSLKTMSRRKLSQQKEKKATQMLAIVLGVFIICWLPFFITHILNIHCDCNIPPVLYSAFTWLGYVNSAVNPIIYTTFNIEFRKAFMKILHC

Structure (SMILES)	inhibition at 10 µM (D2 receptor) [%]	inhibition at 10 µM (5HT2A receptor) [%]	inhibition at 10 µM (5HT1A receptor) [%]	also measured
Cc1cccc(N2CCN(CCCOc3ccc4c5c(c(=O)oc4c3)CCC5)CC2)c1C [Compound 1, 7-{3-[4-(2,3-dimethylphenyl)piperazin-1-yl]-propoxy}-2,3-dihydro-1H-cyclopenteno[c]benzopyran-4-one]	3.3	82.9	103	
O=c1oc2cc(OCCCN3CCN(c4cccc(Cl)c4Cl)CC3)ccc2c2c1CCC2 [Compound 2, 7-{3-[4-(2,3-dichlorophenyl)piperazin-1-yl]-propoxy}-2,3-dihydro-1H-cyclopenteno[c]benzopyran-4-one]	11.5	14.3	65.8	
O=c1oc2cc(OCCCN3CCN(c4cccc(C(F)(F)F)c4)CC3)ccc2c2c1CCC2 [Compound 3, 7-{3-[4-(3-trifluoromethylphenyl)piperazin-1-yl]-propoxy}-2,3-dihydro-1H-cyclopenteno[c]benzopyran-4-one]	17.2	62.2	104	
COc1ccccc1N1CCN(CCCOc2ccc3c4c(c(=O)oc3c2)CCC4)CC1 [Compound 4, 7-{3-[4-(2-methoxyphenyl)piperazin-1-yl]-propoxy}-2,3-dihydro-1H-cyclopenteno[c]benzopyran-4-one]	50.2	112	116	
COc1ccccc1N1CCN(CCCOc2ccc3c4c(c(=O)oc3c2C)CCC4)CC1 [Compound 6, 7-{3-[4-(2-methoxyphenyl)piperazin-1-yl]-propoxy}-6-methyl-2,3-dihydro-1H-cyclopenteno[c]benzopyran-4-one]	4.7	75.4	95.5	
COc1ccc(N2CCN(CCCCOc3ccc4c5c(c(=O)oc4c3)CCC5)CC2)cc1 [Compound 8, 7-{4-[4-(4-methoxyphenyl)piperazin-1-yl]-butoxy}-2,3-dihydro-1H-cyclopenteno[c]benzopyran-4-one]	26.4	23.4	62.8	
O=c1oc2cc(OCCCCN3CCN(c4ccc(F)cc4)CC3)ccc2c2c1CCC2 [Compound 9, 7-{4-[4-(4-fluorophenyl)piperazin-1-yl]-butoxy}-2,3-dihydro-1H-cyclopenteno[c]benzopyran-4-one]	15.2	119	104	
O=c1oc2cc(OCCCCN3CCC(c4noc5cc(F)ccc45)CC3)ccc2c2c1CCC2 [Compound 10, 7-{4-[4-(3-(6-fluoro-benzisoxazole)-1-piperidyl)-butoxy]}-2,3-dihydro-1H-cyclopenteno[c]benzopyran-4-one]	5.7	68.4	42.5	
COc1ccccc1N1CCN(CCCCOc2ccc3c4c(c(=O)oc3c2C)CCC4)CC1 [Compound 11, 7-{4-[4-(2-methoxyphenyl)piperazin-1-yl]-butoxy}-6-methyl-2,3-dihydro-1H-cyclopenteno[c]benzopyran-4-one]	59.2	105	106	
Cc1c(OCCCCN2CCN(c3nsc4ccccc34)CC2)ccc2c3c(c(=O)oc12)CCC3 [Compound 12, 7-{4-[4-(3-(1,2-benzisothiazole)-1-piperazinyl)-butoxy]}-6-methyl-2,3-dihydro-1H-cyclopenteno[c]benzopyran-4-one]	61.2	107	104	
COc1ccccc1N1CCN(CCCCOc2ccc3c4c(c(=O)oc3c2Cl)CCC4)CC1 [Compound 13, 7-{4-[4-(2-methoxyphenyl)piperazin-1-yl]-butoxy}-6-chloro-2,3-dihydro-1H-cyclopenteno[c]benzopyran-4-one]	59.2	105	106	
O=c1oc2cc(OCCCCN3CCC(c4noc5cc(F)ccc45)CC3)c(Cl)cc2c2c1CCC2 [Compound 16, 7-{4-[4-(3-(6-fluoro-benzisoxazole)-1-piperidyl)-butoxy]}-8-chloro-2,3-dihydro-1H-cyclopenteno[c]benzopyran-4-one]	51.5	88.4	55.3	
COc1ccccc1N1CCN(CCCCOc2cc3oc(=O)c4c(c3cc2Cl)CCC4)CC1 [Compound 17, 7-{4-[4-(2-methoxyphenyl)piperazin-1-yl-butoxy]}-8-chloro-2,3-dihydro-1H-cyclopenteno[c]benzopyran-4-one]	15.4	104	115	
O=c1oc2cc(OCCCCN3CCC(c4noc5cc(F)ccc45)CC3)ccc2c2c1CCCC2 [Compound 18, 3-{4-[4-(3-(6-fluoro-benzisoxazole)-1-piperidyl)-butoxy]}-7,8,9,10-tetrahydrobenzo[c]benzopyran-6-one]	80.6	114	46.6	
COc1ccccc1N1CCN(CCCCOc2ccc3c4c(c(=O)oc3c2C)CCCC4)CC1 [Compound 20, 3-{4-[4-(2-methoxyphenyl)piperazin-1-yl]-butoxy}-4-methyl-7,8,9,10-tetrahydrobenzo[c]benzopyran-6-one]	66.4	90.7	100	
O=C1CCc2ccc(OCCCCN3CCN(c4cccc(Cl)c4Cl)CC3)cc2N1 [aripiprazole]				LD50 (in vivo [1]; KM): 93 mg/kg; ED50 (in vivo [2]): 2.4 mg/kg; ED50 (mice of Kunming breed): 0.12 mg/kg; ED50 (KM mice; po, mice): 0.66 mg/kg; Scoring (value), apomorphine induced clambering (KM mice; dosage 0.3 mg/kg): 4.50 ± 1.51; Scoring (value), apomorphine induced clambering (KM mice; dosage 1 mg/kg): 1.5 ± 1.08; Scoring (value), apomorphine induced clambering (KM mice; dosage 3 mg/kg): 2.30 ± 1.57; Scoring (value), apomorphine induced clambering (KM mice; dosage 10 mg/kg): 0.20 ± 0.42
Cc1cc2c(s1)Nc1ccccc1N=C2N1CCN(C)CC1 [olanzapine]				ED50 (KM mice; po): 0.11 mg/kg; Scoring (value), apomorphine induced clambering (KM mice; dosage 0.1 mg/kg): 5.00 ± 1.25; Scoring (value), apomorphine induced clambering (KM mice; dosage 0.3 mg/kg): 2.10 ± 1.10; Scoring (value), apomorphine induced clambering (KM mice; dosage 1 mg/kg): 1.30 ± 1.25; Scoring (value), apomorphine induced clambering (KM mice; dosage 3 mg/kg): 0.30 ± 0.48
OCCOCCN1CCN(C2=Nc3ccccc3Sc3ccccc32)CC1 [quetiapine]				LD50 (in vivo [1]; KM): 800 mg/kg; ED50 (in vivo [2]): 800 mg/kg; MK-801 induced high activity ED50 (mice of Kunming breed): 10.1 mg/kg; Scoring (value), apomorphine induced clambering (KM mice; dosage 3 mg/kg): 4.00 ± 2.05; Scoring (value), apomorphine induced clambering (KM mice; dosage 10 mg/kg): 3.00 ± 1.63; Scoring (value), apomorphine induced clambering (KM mice; dosage 30 mg/kg): 4.00 ± 2.31; Scoring (value), apomorphine induced clambering (KM mice; dosage 100 mg/kg): 2.60 ± 2.55; Scoring (value), apomorphine induced clambering (KM mice; dosage 300 mg/kg): 0.50 ± 1.07; apomorphine induced clambering ED50 (KM mice; po, mice): 2.02 mg/kg
Cc1nc2n(c(=O)c1CCN1CCC(c3noc4cc(F)ccc34)CC1)CCCC2 [risperidone]				ED50 (KM mice; po): 0.015 mg/kg; effect on apomorphine induced clambering symptoms (in words) (KM mice; compared to the model group): effectively improve; Scoring (value), apomorphine induced clambering (KM mice; dosage 0.01 mg/kg): 5.20 ± 1.87; Scoring (value), apomorphine induced clambering (KM mice; dosage 0.03 mg/kg): 2.70 ± 1.77; Scoring (value), apomorphine induced clambering (KM mice; dosage 0.1 mg/kg): 1.80 ± 1.32; Scoring (value), apomorphine induced clambering (KM mice; dosage 0.3 mg/kg): 0.20 ± 0.63
O=C1Cc2cc(CCN3CCN(c4nsc5ccccc45)CC3)c(Cl)cc2N1 [ziprasidone]				LD50 (in vivo [1]; mice, single intragastric administration, read-out: LD50): > 2000 mg/kg; ED50 (in vivo [2]): 30.4 mg/kg; ED50 (mice of Kunming breed): 0.56 mg/kg; ED50 (KM mice; po, mice): 0.37 mg/kg; Scoring (value), apomorphine induced clambering (KM mice; dosage 0.3 mg/kg): 4.40 ± 2.01; Scoring (value), apomorphine induced clambering (KM mice; dosage 1 mg/kg): 3.80 ± 1.40; Scoring (value), apomorphine induced clambering (KM mice; dosage 3 mg/kg): 0.70 ± 1.16; Scoring (value), apomorphine induced clambering (KM mice; dosage 10 mg/kg): 0.40 ± 0.84
